# In patent US7981913B2, “Isophthalates as beta-secretase inhibitors” (Bristol-Myers Squibb Company, priority 2005, dated 2011):
# Molecular target: T1, BACE1 enzyme (Homo sapiens, UniProt P56817)
# T1 construct: The HEK293-9B.A1 cell line, which overexpresses the BACE1 enzyme, was derived from HEK293 cells; endogenous in cells; washed 48,000 x g membrane pellet / cell homogenate
# Test: Radioligand displacement assay with a radiolabeled BACE inhibitor on HEK293-9B.A1 cell homogenate
# Format: binding
# Conditions: displacement of 1 nM tritiated radioligand, HEK293-9B.A1 homogenate, pH 5.0, 1.5 hr at 25° C.; read-out: Activity Rating (based on IC50 values)
# Source text: There are a number of methods by which inhibitors of the BACE enzyme can be identified experimentally. The enzyme can be obtained from membrane samples from natural tissues or cultured cells or can be expressed recombinantly in a host cell by well known methods of molecular biology. The whole enzyme or a portion thereof can be expressed, for example, in bacterial, insect or mammalian cells to obtain a catalytically active enzyme species. The enzymatic activity and/or ligand binding capability of the enzyme can be assessed within these membrane samples, or the enzyme can be purified to varying extents. As an illustrative example, the nucleic acid sequence encoding the pro and catalytic domains of human BACE can be appended on the 5′ end with an untranslated and signal sequence from the gene for acetylcholinesterase, and on the 3′ end with a sequence encoding a poly-histidine tag. This cDNA can then be expressed in Drosophila melanogaster S2 cells in which the signal and pro sequences of the transcribed/translated protein are removed by cellular proteases and the catalytic domain, appended by a C-terminal poly-histidine tag, is secreted out into the cellular medium. The enzyme can then be purified from the culture medium by nickel affinity chromatography by methods well known to those trained in the art [Mallender, W. et al., (2001) “Characterization of recombinant, soluble beta-secretase from an insect cell expression system.” Mol. Pharmacol. 59: 619-626]. Similar strategies for expressing and purifying various forms of BACE in bacterial, mammalian and other cell types would be known to one skilled in the art. A preferred method for determining the potency of a test compound in binding to the BACE enzyme is by monitoring the displacement of a suitable radioligand.
# Radioligand displacement assays with a radiolabeled BACE inhibitor (WO 2004 013098, compound 3, where the methoxy group is substituted for C(^3H)3) were carried out using standard methods (Keen, M. (1999) in Receptor Binding Techniques (Walker, J. M. ed) p. 106 Humana Press, Totowa, N.J.). The HEK293-9B.A1 cell line, which overexpresses the BACE1 enzyme, was derived from HEK293 cells (Simmons, N. L. (1990) A cultured human renal epithelioid cell line responsive to vasoactive intestinal peptide. Exp. Physiol. 75:309-19.) by RAGE™ (Harrington, J. J. et al. (2001) Creation of genome-wide protein expression libraries using random activation of gene expression. Nat. Biotechnol. 19:440-5; U.S. Pat. Nos. 6,410,266 and 6,361,972). […]
# T1 sequence (P56817 46-501): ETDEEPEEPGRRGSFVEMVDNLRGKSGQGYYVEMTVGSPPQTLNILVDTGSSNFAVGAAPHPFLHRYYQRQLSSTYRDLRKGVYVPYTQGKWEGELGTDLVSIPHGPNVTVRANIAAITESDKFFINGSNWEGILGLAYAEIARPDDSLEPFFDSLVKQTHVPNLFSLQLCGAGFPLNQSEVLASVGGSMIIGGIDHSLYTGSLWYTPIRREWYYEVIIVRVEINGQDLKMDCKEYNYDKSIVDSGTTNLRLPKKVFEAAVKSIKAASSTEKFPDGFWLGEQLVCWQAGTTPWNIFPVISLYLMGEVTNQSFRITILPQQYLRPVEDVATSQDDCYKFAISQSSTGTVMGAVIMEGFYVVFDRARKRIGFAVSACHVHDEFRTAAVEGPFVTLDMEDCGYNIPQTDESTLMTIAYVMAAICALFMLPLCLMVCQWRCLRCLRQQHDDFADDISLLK
row,SMILES,IC50 [nM]
1,"CCCO[C@H]1CN[C@@H]([C@@H](O)[C@H](Cc2cc(F)cc(F)c2)NC(=O)c2cc(C(=O)N3CCC[C@@H]3COC)cc(-c3ncco3)c2)C1 [Example 11, N-((1R,2S)-3-(3,5-difluorophenyl)-1-hydroxy-1-((2R,4R)-4-propoxypyrrolidin-2-yl)propan-2-yl)-3-((R)-2-(methoxymethyl)pyrrolidine-1-carbonyl)-5-(oxazol-2-yl)benzamide]",< 100
2,"CCCO[C@H]1CN[C@@H]([C@@H](O)[C@H](Cc2cc(F)cc(F)c2)NC(=O)c2cc(C(=O)N(CCC)CCC)cc(-c3ncco3)c2)C1 [Example 12, N^1-((1R,2S)-3-(3,5-difluorophenyl)-1-hydroxy-1-((2R,4R)-4-propoxypyrrolidin-2-yl)propan-2-yl)-5-(oxazol-2-yl)-N^3,N^3-dipropylisophthalamide]",< 100
3,"CCCCN(C)C(=O)c1cccc(C(=O)N[C@@H](Cc2cc(F)cc(F)c2)[C@H](O)[C@H]2CC(c3ccccc3)CN2)c1 (stereo partly drawn) [Example 7, N^1-butyl-N^3-((1R,2S)-3-(3,5-difluorophenyl)-1-hydroxy-1-((2R)-4-phenylpyrrolidin-2-yl)propan-2-yl)-N^1-methylisophthalamide]",100 to 1000
4,"CCCN(CCC)C(=O)c1cc(C(=O)N[C@@H](Cc2ccccc2)[C@H](O)[C@H]2C[C@@H](S(=O)(=O)CCC)CN2)cc(-c2ncco2)c1 [Example 17, N^1-((1R,2S)-1-hydroxy-3-phenyl-1-((2R,4R)-4-(propylsulfonyl)pyrrolidin-2-yl)propan-2-yl)-5-(oxazol-2-yl)-N^3,N^3-dipropylisophthalamide]",< 100
